This passage reports IC50 results from US12139478B2, “Compounds, compositions and methods” (Denali Therapeutics Inc., priority 2017, dated 2024).

Where two headings read alike, the source gives them in different places.

The subject of this assay is ATF4 translation. Description: ATF4 Nano Luciferase reporter integrated stress response (ISR) assay in H4 ATF4-NLuc cells. The format is cell-based, human. Particulars: Homo sapiens, 0.5 h, H4 ATF4-NLuc (clone 17) cells, compound 30 minutes, then sodium arsenite for 6 additional hours, luminescence readout. From the text: Cellular stress leads to activation of the integrated stress response pathway through one of four eukaryotic initiation factor 2a kinases and halts global translation, while allowing for the translation of select transcripts like ATF4 (activating transcription factor 4) that are important for the response to cellular stress. During normal conditions, small open reading frames (ORFs) in the 5′ UTR of ATF4 occupy the ribosome and prevent translation of the coding sequence of ATF4. During stress conditions however, the ribosome scans past these upstream ORFs and preferentially begins translation at the coding sequence of ATF4. In this way, the translation, and thus protein level of ATF4 is a readout of ISR pathway activation. Thus, a fusion of the uORFs and the beginning of the coding sequence of ATF to a common cellular reporter like nano-luciferase allows for a sensitive and high-throughput readout of ISR pathway activity.
Compounds as provided herein were tested in the following assay. The ATF4 Nano Luciferase reporter was constructed by fusing the human full length 5′ untranslated region (5′-UTR) and a small portion of the coding sequence of the ATF4 gene upstream of the Nano Luciferase (NLuc) coding sequence lacking it's start codon. Specifically, nucleotides +1 through +364 (relative to the transcriptional start site) of ATF4 transcript variant 2 (NCBI NM_182810.2) flanked 5′ by EcoRI and 3′ by BamHI restriction enzyme sites were synthesized and cloned into the EcoRI/BamHI cloning sites of pLVX-EF1a-IRES-Puro lentivirus vector (Clontech). Lentiviral particles were produced with Lenti-X single shots (VSV-G, Clontech) according to the manufacturer's instructions and used to transduce a human H4 neuroglioma cell line (ATCC HTB-148). H4 cells were selected with 1.25 μg/mL Puromycin, and clonal cell lines generated by limiting dilution. We utilized this cell line to generate an integrated stress response (ISR) assay to evaluate the activity of ISR pathway inhibitors via luminescence readout. The H4 ATF4-NLuc (clone 17) cell line is plated at a density of […] in 96-well or 384-well respectively in DMEM+[…]. 24-hours later test compounds diluted in dimethyl sulfoxide (DMSO) are added for 30 minutes at 37° C., followed by ISR pathway activation with […] sodium arsenite aqueous solution for 6 additional hours. Nano Glo luciferase reagent (N1150, Promega) is added according to manufacturer instructions and the luminescence signal (corresponding to the level of ATF4 translation and thus ISR pathway activation) is read with a standard plate reader with luminescence detection capabilities. […] In the tables below, activity of the tested compounds is provided, and in Table 3 as follows: […]; ++=IC50 1-10 μM; +=IC50>10 μM.
(In general: In a reporter assay the amount or activity of a reporter protein is the signal.)

[1] abbreviates: read-out: Biological Example 1 (ATF4 translation, IC50 nM).

On to `O=C(COC1CC(OC(F)(F)F)C1)N[C@@H]1CC[C@@H](c2cc(-c3ccc(Cl)c(F)c3)no2)OC1` (some centres unmarked) [Example 50], for which the IC50 (read-out: Activity) was less than 1000 nM and the IC50 under setting [1] came out at 38 nM.

For `O=C(COc1ccccc1)N[C@@H]1CC[C@@H](c2nnc([C@H]3C[C@@H](OC(F)(F)F)C3)o2)OC1` [Example 27, 2-phenoxy-N-[(3R,6S)-6-[5-[3-cis-(trifluoromethoxy)cyclobutyl]-1,3,4-oxadiazol-2-yl]tetrahydropyran-3-yl]acetamide], the IC50 (read-out: Activity) was less than 1000 nM.

As for `O=C(COc1ccc(Cl)cc1)N[C@H]1CO[C@H](c2nnc([C@H]3C[C@@H](OC(F)(F)F)C3)o2)CC1(F)F` [Example 41, N-[(3S,6S)-4,4-difluoro-6-[5-[3-cis-(trifluoromethoxy)cyclobutyl]-1,3,4-oxadiazol-2-yl]tetrahydropyran-3-yl]-2-(4-chlorophenoxy)acetamide], the IC50 runs as follows: (read-out: Activity) less than 1000 nM; under setting [1], 13.5 nM.

Take `O=C(COc1ccc(Cl)c(F)c1)N[C@@H]1CC[C@@H](c2nnc(C3C[C@H]3COC(F)(F)F)o2)OC1` (single isomer, unassigned) [Example 69]: for the setting “read-out: Activity”, the IC50 is less than 1000 nM.

On to `O=C(COc1ccc(Cl)c(F)c1)N[C@@H]1CC[C@@H](c2nnc(COC(F)(F)F)o2)OC1` [Example 55], for which the IC50 under setting [1] came out at 22.7 nM.

Consider `O=C(COc1ccc(F)cc1)N[C@@H]1CC[C@@H](c2noc(C3CC(OC(F)(F)F)C3)n2)OC1` (some centres unmarked) [Example 53], for which the IC50 (read-out: Activity) is less than 1000 nM.

For the molecule `O=C(COc1ccc(Cl)cc1)NC12CCC(c3nnc([C@H]4C[C@@H](OC(F)(F)F)C4)o3)(CC1)OC2` [Example 26, 2-(4-chlorophenoxy)-N-[1-[5-[3-cis-(trifluoromethoxy)cyclobutyl]-1,3,4-oxadiazol-2-yl]-2-oxabicyclo[2.2.2]octan-4-yl]acetamide], the IC50 is less than 1000 nM (read-out: Activity) and 2.2 nM under setting [1].

`O=C(COc1ccc(Cl)c(F)c1)N[C@H]1CO[C@H](c2nnc(C3CC(OC(F)(F)F)C3)o2)CC1(F)F` (stereo partly drawn) [Example 62, 2-(4-chloro-3-fluorophenoxy)-N-((3S,6S)-4,4-difluoro-6-(5-(3-cis-(trifluoromethoxy)cyclobutyl)-1,3,4-oxadiazol-2-yl)tetrahydro-2H-pyran-3-yl)acetamide]: for the setting “read-out: Activity”, the IC50 was less than 1000 nM.

Take `O=C(COc1ccc(F)c(F)c1)NC12CCC(c3nnc([C@H]4C[C@@H](OC(F)(F)F)C4)o3)(CC1)OC2` [Example 25, 2-(3,4-difluorophenoxy)-N-[1-[5-[3-cis-(trifluoromethoxy)cyclobutyl]-1,3,4-oxadiazol-2-yl]-2-oxabicyclo[2.2.2]octan-4-yl]acetamide]: for the setting “read-out: Activity”, the IC50 was less than 1000 nM.

For `O=C(COc1ccc(F)cc1F)N[C@@H]1CC[C@@H](c2nnc([C@H]3C[C@@H](OC(F)(F)F)C3)o2)OC1` [Example 37, 2-(2,4-difluorophenoxy)-N-[(3R,6S)-6-[5-[3-cis-(trifluoromethoxy)cyclobutyl]-1,3,4-oxadiazol-2-yl]tetrahydropyran-3-yl]acetamide], the IC50 (read-out: Activity) is less than 1000 nM.

On to `O=C(COc1ccc(Cl)cc1)N[C@H]1CO[C@H](c2nnc(C3CC(OC(F)(F)F)C3)o2)C[C@@H]1F` (stereo partly drawn) [Example 67, 2-(4-chlorophenoxy)-N-((3S,4S,6S)-4-fluoro-6-(5-(3-cis-(trifluoromethoxy)cyclobutyl)-1,3,4-oxadiazol-2-yl)tetrahydro-2H-pyran-3-yl)acetamide], for which the IC50 (read-out: Activity) is less than 1000 nM and the IC50 under setting [1] stood at 3.1 nM.

Regarding `O=C(COC1CC(OC(F)(F)F)C1)NC12CCC(c3cnn(-c4ccc(Cl)c(F)c4)c3)(CC1)OC2` (centres unmarked) [Example 48], the IC50 (read-out: Activity) is less than 1000 nM.

With `O=C(COc1ccc(Cl)cc1)N[C@@H]1CC[C@@H](C(O)COC2CC(OC(F)(F)F)C2)OC1` (some centres unmarked) [Example 46], for the setting “read-out: Activity”, the IC50 was less than 1000 nM.
